pKb data for 13 molecules are collected here from ChEMBL document CHEMBL1133792, “Synthesis, absolute configuration and antimuscarinic activity of the enantiomers of [1-(2,2-diphenyl-[1,3]dioxolan-4-yl)-ethyl]-dimethyl-amine” (Bioorg Med Chem Lett, 2001).

Assay [1] deals with T1, Muscarinic acetylcholine receptor M1 (Homo sapiens) (UniProt P11229).
T1 sequence (whole entry): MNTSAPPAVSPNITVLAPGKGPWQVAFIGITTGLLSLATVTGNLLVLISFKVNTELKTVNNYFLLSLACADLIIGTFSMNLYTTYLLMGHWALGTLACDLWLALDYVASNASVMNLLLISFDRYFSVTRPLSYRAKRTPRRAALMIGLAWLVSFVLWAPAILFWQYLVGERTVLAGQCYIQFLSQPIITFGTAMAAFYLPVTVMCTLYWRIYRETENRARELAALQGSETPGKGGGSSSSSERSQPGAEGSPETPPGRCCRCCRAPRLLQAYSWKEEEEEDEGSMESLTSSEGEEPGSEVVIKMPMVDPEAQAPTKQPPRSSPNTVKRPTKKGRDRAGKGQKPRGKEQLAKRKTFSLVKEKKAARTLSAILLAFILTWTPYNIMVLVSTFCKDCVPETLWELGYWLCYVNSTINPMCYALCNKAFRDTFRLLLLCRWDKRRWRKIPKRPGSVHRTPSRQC
Description: Affinity for Muscarinic acetylcholine receptor M1 of rabbit vas deferens. The note with it: Oryctolagus cuniculus; target entry is the homologue from another species.

Assay [2] addresses T2, Muscarinic acetylcholine receptor M2 (Homo sapiens) (UniProt P08172).
T2 sequence (whole entry): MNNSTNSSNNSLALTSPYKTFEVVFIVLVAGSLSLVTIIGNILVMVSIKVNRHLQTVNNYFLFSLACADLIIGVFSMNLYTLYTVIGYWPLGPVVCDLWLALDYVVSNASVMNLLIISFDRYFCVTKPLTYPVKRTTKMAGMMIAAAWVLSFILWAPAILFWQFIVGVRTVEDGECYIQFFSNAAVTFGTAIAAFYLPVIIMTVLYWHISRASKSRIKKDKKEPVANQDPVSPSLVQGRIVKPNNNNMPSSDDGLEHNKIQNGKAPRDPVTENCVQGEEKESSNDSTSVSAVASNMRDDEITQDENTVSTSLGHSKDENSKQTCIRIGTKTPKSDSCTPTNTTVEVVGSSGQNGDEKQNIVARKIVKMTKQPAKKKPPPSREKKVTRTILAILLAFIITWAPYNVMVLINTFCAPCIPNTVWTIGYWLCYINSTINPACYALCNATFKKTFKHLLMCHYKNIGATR
In words: Affinity for Muscarinic acetylcholine receptor M2 of guinea pig heart. The note with it: Cavia porcellus; target entry is the homologue from another species.

Assay [3] concerns the target Muscarinic acetylcholine receptor M3 (Cavia porcellus) (UniProt Q8VH26). In words: Affinity for Muscarinic acetylcholine receptor M3 of guinea pig ileum. It counts as tissue-based.

Muscarinic acetylcholine receptor M3 (Cavia porcellus), sequence (Q8VH26 1-587): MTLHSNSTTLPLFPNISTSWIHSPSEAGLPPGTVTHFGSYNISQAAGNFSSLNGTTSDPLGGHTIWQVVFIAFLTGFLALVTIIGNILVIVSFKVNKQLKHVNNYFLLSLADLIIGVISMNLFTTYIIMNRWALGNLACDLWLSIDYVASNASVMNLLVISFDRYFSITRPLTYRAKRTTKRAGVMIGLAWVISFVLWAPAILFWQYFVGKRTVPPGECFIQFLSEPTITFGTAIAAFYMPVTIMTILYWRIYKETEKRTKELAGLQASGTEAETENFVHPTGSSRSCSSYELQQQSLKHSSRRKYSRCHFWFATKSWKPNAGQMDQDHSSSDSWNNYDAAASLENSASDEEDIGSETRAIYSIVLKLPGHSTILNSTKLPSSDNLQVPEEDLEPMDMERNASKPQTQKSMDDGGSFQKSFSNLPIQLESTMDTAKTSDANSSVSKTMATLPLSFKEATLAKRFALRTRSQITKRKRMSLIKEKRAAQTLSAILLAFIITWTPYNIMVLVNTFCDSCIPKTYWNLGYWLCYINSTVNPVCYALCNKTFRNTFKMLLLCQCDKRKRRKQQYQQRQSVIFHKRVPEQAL

Take `C[C@@H](C1COC(c2ccccc2)(c2ccccc2)O1)N(C)C` (some centres undefined): the pKb (commonly the Kb on a negative log10 scale, so that one unit is a factor of ten) came to 6.94 in assay [1], 7.35 in assay [2] and 7.19 in assay [3].
Turning to `CC(C1COC(c2ccccc2)(c2ccccc2)O1)N(C)C` (racemic; form 1), the pKb in assay [1] was 6.95; in assay [2], 7.2; in assay [3], 6.96.
In the case of `CC(C1COC(c2ccccc2)(c2ccccc2)O1)[N+](C)(C)C` (racemic; form 2), the results for the pKb in assay [1], in assay [2] and in assay [3] were 7.82, 8.07 and 7.92, respectively.
In the case of `CN(C)CC1COC(c2ccccc2)(c2ccccc2)O1` (centres undefined), the pKb was 7.15 in assay [1], 7.11 in assay [2] and 6.72 in assay [3].
For the molecule `C[C@H]([C@@H]1COC(c2ccccc2)(c2ccccc2)O1)N(C)C`, the pKb worked out at 6.83 in assay [1], 7.47 in assay [2] and 7.45 in assay [3].
Taken in the same sequence, the figures for `C[C@@H]([C@H]1COC(c2ccccc2)(c2ccccc2)O1)[N+](C)(C)C` were 7.47, 7.82 and 7.85.
For `C[C@H]([C@@H]1COC(c2ccccc2)(c2ccccc2)O1)[N+](C)(C)C`, the pKb was 8.23 in assay [1], 8.38 in assay [2] and 8.4 in assay [3].
Turning to `C[C@H](C1COC(c2ccccc2)(c2ccccc2)O1)N(C)C` (some centres undefined), the negative logarithm of the Kb (pKb) in assay [1] came out at 6.52; in assay [2] it was 6.41; in assay [3], 6.41.
Regarding `C[C@@H]([C@H]1COC(c2ccccc2)(c2ccccc2)O1)N(C)C`, the values for the negative logarithm of the Kb (pKb) in assay [1], in assay [2] and in assay [3] were 8.46, 8.39 and 8.92, respectively.
As for `CC(C1COC(c2ccccc2)(c2ccccc2)O1)[N+](C)(C)C` (racemic; form 1), the pKb amounted to 8.01 in assay [1], 8.22 in assay [2] and 8.3 in assay [3].
Turning to `CC(C1COC(c2ccccc2)(c2ccccc2)O1)N(C)C` (racemic; form 2), the pKb in assay [1] was determined as 8.11; in assay [2] it was 8.03; in assay [3], 7.94.
In the case of `C[C@@H](C1COC(c2ccccc2)(c2ccccc2)O1)[N+](C)(C)C` (some centres undefined), the negative-log Kb (pKb) is 7.12 in assay [1], 8.21 in assay [2] and 8 in assay [3].
Turning to `C[C@H](C1COC(c2ccccc2)(c2ccccc2)O1)[N+](C)(C)C` (some centres undefined), the pKb in assay [1] is 8.24; in assay [2] it was 7.53; in assay [3], 7.51.
